The text below walks through data of PMC7481407, “Inhibition of Pendrin by a small molecule reduces Lipopolysaccharide-induced acute Lung Injury” (Theranostics, 2020).

The target in the assay is T1, pendrin (Homo sapiens, UniProt O43511).
T1 construct: gene SLC26A4; human wild-type pendrin expressed in human alveolar epithelial cells (hAEC)
T1 sequence (O43511 1-780): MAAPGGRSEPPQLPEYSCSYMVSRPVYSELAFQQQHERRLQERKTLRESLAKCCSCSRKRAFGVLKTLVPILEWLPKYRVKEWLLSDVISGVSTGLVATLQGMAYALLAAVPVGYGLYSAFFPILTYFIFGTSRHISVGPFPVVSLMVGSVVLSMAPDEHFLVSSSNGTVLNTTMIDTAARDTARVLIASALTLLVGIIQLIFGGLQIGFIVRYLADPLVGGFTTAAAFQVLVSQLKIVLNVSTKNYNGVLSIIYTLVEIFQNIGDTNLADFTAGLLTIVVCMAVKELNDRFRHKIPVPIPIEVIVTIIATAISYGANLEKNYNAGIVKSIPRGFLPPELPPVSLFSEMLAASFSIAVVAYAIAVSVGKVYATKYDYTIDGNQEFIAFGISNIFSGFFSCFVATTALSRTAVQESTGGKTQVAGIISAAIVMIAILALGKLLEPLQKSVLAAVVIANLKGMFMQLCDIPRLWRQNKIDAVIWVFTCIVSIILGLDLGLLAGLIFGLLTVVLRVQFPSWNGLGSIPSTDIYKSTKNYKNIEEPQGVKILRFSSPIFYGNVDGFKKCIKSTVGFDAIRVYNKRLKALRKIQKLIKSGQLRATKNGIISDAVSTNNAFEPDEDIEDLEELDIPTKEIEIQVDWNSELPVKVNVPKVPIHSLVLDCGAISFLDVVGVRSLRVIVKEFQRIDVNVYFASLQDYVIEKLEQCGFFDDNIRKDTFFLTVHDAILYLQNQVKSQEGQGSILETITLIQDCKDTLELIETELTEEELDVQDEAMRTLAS
Kind of assay: Cl-/SCN- exchange activity assay in pendrin-transfected human alveolar epithelial cells, dose-response. The format is cell-based.

For `CC(C)(C)c1ccc(C2=N/C(=C/c3cccs3)C(=O)O2)cc1` [YS-01], half-maximal inhibition (IC50) was put at 4.7 ± 0.82 µM.
